In assay [1] the target is Lysophosphatidic acid receptor 1 (Homo sapiens, UniProt Q92633). As to the kind of experiment: Antagonist activity at human LPA1 receptor expressed in […] cells assessed as inhibition of LPA-induced Ca2+ mobilization by FURA-2AM dye based fluorescence assay. The format is functional, cell-based.
The target in assay [2] is Lysophosphatidic acid receptor 2 (Homo sapiens, UniProt Q9HBW0). The assay is described as follows: Antagonist activity at human LPA2 receptor expressed in […] cells assessed as inhibition of LPA-induced Ca2+ mobilization by FURA-2AM dye based fluorescence assay. It counts as functional, cell-based.
Sequence of Lysophosphatidic acid receptor 2 (Q9HBW0 whole entry): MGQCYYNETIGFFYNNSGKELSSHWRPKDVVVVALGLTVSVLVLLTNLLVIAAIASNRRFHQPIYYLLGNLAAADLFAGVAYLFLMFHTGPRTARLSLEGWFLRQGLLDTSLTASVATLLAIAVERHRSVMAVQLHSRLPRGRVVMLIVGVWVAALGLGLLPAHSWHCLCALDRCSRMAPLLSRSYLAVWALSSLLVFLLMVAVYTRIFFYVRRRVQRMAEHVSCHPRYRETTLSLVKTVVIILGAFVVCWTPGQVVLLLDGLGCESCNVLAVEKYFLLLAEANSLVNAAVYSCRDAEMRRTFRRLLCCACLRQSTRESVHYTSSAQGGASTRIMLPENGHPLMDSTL
Assay [3] concerns the target T1, Lysophosphatidic acid receptor 3 (Homo sapiens, UniProt Q9UBY5).
T1 sequence (Q9UBY5 whole entry): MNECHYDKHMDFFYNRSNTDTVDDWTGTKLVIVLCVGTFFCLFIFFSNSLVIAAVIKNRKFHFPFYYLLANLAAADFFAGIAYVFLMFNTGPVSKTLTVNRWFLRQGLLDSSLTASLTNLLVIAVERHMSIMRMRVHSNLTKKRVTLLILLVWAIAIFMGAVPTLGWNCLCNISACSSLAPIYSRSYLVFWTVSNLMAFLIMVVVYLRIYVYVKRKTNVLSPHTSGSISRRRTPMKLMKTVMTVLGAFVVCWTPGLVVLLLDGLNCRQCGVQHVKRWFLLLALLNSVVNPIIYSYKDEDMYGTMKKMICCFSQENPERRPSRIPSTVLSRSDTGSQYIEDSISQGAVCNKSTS
The assay is described as follows: Antagonist activity at human LPA3 receptor expressed in […] cells assessed as inhibition of LPA-induced Ca2+ mobilization by FURA-2AM dye based fluorescence assay. It counts as functional, cell-based.

Assay [4] addresses Lysophosphatidic acid receptor 4 (Homo sapiens, UniProt Q99677). The assay is described as follows: Antagonist activity at human LPA4 receptor expressed in CHO cells assessed as inhibition of LPA-induced Ca2+ mobilization by FURA-2AM dye based fluorescence assay. It counts as functional, cell-based.
The nature of assay [5]: Binding affinity to Yersinia YopH.
Assay [6] deals with Transient receptor potential cation channel subfamily V member 1 (Homo sapiens, UniProt Q8NER1). The assay is described as follows: Activation of TRPV-1 channel (unknown origin).
Sequence of Transient receptor potential cation channel subfamily V member 1 (Q8NER1 whole entry): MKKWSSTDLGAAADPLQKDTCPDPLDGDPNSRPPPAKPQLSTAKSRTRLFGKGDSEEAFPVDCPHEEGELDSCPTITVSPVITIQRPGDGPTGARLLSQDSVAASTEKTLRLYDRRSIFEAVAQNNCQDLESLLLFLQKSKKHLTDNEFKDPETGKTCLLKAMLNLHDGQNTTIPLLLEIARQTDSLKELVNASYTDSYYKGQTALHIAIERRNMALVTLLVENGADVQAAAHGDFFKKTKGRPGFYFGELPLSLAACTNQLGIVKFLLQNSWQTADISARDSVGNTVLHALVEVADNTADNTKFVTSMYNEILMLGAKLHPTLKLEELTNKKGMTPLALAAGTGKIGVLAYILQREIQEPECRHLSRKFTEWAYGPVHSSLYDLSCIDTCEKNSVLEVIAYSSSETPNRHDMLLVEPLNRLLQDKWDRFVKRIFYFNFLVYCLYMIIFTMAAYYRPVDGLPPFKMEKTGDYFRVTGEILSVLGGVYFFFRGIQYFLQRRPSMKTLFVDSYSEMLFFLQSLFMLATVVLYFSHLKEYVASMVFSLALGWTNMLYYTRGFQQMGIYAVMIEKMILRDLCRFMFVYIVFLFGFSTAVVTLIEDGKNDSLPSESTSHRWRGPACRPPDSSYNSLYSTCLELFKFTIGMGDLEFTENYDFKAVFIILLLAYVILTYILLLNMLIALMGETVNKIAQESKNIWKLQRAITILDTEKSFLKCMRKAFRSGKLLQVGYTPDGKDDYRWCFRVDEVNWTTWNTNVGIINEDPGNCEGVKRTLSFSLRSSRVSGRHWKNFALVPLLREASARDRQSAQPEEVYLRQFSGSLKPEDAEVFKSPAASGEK
Assay [7] concerns the target T2, Autotaxin (Homo sapiens, UniProt Q13822). As to the kind of experiment: Inhibition of recombinant ATX (unknown origin) assessed as inhibition of hydrolysis of fluoregenic lysoPC analogue FS-3.
In assay [8] the target is T2, Autotaxin. The assay is described as follows: Inhibition of recombinant ATX (unknown origin) assessed as inhibition of hydrolysis of fluoregenic lysoPC analogue FS-3 at 10 uM.
For a further assay, the system named is MDA-MB-231. The assay is described as follows: Inhibition of cell migration in human MDA-MB-231 cells by scratch wound assay. It counts as functional.
The target of assay [9] is T3, Purine nucleoside phosphorylase (Homo sapiens, UniProt P00491).
T3 sequence (P00491 whole entry): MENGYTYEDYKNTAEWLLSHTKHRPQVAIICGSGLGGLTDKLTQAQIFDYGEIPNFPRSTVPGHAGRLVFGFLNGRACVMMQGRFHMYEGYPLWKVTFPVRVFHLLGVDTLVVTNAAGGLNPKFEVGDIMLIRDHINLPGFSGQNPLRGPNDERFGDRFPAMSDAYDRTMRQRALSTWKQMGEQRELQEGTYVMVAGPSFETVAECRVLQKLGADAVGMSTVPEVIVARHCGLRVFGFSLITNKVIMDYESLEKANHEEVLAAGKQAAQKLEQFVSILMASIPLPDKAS
As to the kind of experiment: Inhibition of human erythrocyte PNP.

SMILES strings stand for the structures.

Sequence of Lysophosphatidic acid receptor 1 (Q92633 whole entry): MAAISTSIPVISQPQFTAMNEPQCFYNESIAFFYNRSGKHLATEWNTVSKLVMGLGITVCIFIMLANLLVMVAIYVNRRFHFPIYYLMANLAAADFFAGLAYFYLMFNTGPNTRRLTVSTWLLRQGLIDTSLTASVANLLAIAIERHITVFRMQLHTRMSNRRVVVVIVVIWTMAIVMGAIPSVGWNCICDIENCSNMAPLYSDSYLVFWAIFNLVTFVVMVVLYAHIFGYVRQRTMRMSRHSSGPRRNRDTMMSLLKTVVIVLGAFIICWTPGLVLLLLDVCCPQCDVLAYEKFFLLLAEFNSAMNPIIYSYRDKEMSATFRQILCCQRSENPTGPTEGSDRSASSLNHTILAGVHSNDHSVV
Sequence of Lysophosphatidic acid receptor 4 (Q99677 whole entry): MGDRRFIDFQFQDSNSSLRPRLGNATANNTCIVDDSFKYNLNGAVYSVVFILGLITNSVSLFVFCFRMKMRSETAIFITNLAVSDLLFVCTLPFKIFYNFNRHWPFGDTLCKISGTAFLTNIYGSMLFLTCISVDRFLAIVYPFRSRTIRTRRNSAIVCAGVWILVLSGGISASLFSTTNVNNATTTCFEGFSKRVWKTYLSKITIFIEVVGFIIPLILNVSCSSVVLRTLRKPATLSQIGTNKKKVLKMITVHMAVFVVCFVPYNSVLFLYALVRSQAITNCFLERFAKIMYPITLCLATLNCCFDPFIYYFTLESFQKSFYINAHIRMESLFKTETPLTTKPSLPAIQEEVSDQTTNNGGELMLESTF

For the molecule `CCCCCCCCCCCCCCCC(=O)OC[C@@H](O)CC(Br)P(=O)(O)O` (some centres not stated), the inhibition constant (Ki) in assay [1], in [2], in [3] and in assay [4] was 0.17 µM in each case.

Turning to `O=C(CCCC[C@H]1SC[C@H]2NC(=O)N[C@H]21)NCc1ccc(C(Br)P(=O)(O)O)cc1` (some centres not stated), the inhibition constant (Ki) in assay [5] was determined as 740 µM.

The molecule `CCCCCCCCCCCCCCCC(=O)OC[C@@H](O)CC(Br)P(=O)(O)O` (mixture of isomers) [listing 1 of 2 here] displayed a Kd in assay [6] of 1.1 µM.

For `CCN(CC)c1ccc2c(-c3ccc(S(=O)(=O)[O-])cc3S(=O)(=O)NCc3ccc(C(Br)P(=O)(O)O)cc3)c3ccc(=[N+](CC)CC)cc-3oc2c1` (configuration not stated), in assay [5], the affinity, expressed as Ki, was 690 µM.

Take `CCCCCCCC/C=C\CCCCCCCC(=O)OC[C@@H](O)CC(Br)P(=O)(O)O` (some centres not stated): the Ki in assay [1], in assay [2], in [3] and in assay [4] was 0.17 µM each time.

In the case of `CCCCCCCC/C=C\CCCCCCCC(=O)OC[C@@H](O)COP(=O)(O)O` [LYSOPHOSPHATIDIC ACID], the Kd in assay [6] worked out at 0.754 µM.

As to `CCCCCCCCCCCCCCCC(=O)OC[C@@H](O)C[C@@H](Br)P(=O)(O)O`, the IC50 on Autotaxin [7] amounted to 0.165 µM. Besides, the inhibition at Autotaxin [8] stood at 98%. Further, in the assay with MDA-MB-231, the “inhibition (INH)” value is on record as 50%.

In turn, `Nc1nc2c(ncn2CCCCC(F)(F)P(=O)(O)O)c(=O)[nH]1` had a Ki in [9] of 0.174 µM.

Regarding `CCCCCCCCCCCCCCCC(=O)OC[C@@H](O)C[C@H](Br)P(=O)(O)O`, the IC50 at Autotaxin [7] was 0.022 µM. In addition, the inhibition on Autotaxin [8] stood at 98%. Besides, the “inhibition (INH)” value with MDA-MB-231 is recorded as 50%.

With `CCN(CC)c1ccc2c(-c3ccc(S(=O)(=O)NCc4ccc(C(Br)P(=O)(O)O)cc4)cc3S(=O)(=O)[O-])c3ccc(=[N+](CC)CC)cc-3oc2c1` (configuration not stated), in assay [5], affinity was put at a Ki of 690 µM.

With `CCCCCCCCCCCCCCCC(=O)OC[C@@H](O)CC(Br)P(=O)(O)O` (mixture of isomers) [listing 2 of 2 here], the inhibition at Autotaxin [8] came out at 98%.

In assay [5], `O=P(O)(O)C(Br)c1ccccc1` (configuration not stated) showed an inhibition constant Ki of 4100 µM.

The values above are taken from ChEMBL document CHEMBL3621086, “Synthesis of -brominated phosphonates and their application as phosphate bioisosteres” (Medchemcomm, 2014).
